Where “and” joins values, the source holds several entries; their conditions need not be identical. Identical values can stand only once. Inconclusive results and toxic doses are left out. Rule for the calls: active = survival T/C of 150% or more; inactive = T/C below 125% in these data.
System: P388 leukemia ip, CD2F1 mice, survival T/C
Experiment: NCI In Vivo Anticancer Drug Screen. Data for tumor model P388 Leukemia (intraperitoneal) in CD2F1 (CDF1) mice
Settings: endpoint: median survival time, higher = longer survival
In short: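 Mice carrying the transplanted tumor received test compound or vehicle. Survival was recorded in each group, and the value is the treated-group measurement divided by that of the vehicle-treated control group.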

[1] = dose: 60.0 mg/kg/injection, schedule: Q01DX005 (ip), vehicle: saline with Tween-80
[2] = dose: 120.0 mg/kg/injection, schedule: Q01DX005 (ip), vehicle: saline with Tween-80
[3] = dose: 240.0 mg/kg/injection, schedule: Q01DX005 (ip), vehicle: saline with Tween-80
[4] = dose: 25.0 mg/kg/injection, schedule: Q01DX009 (ip), vehicle: saline
[5] = dose: 50.0 mg/kg/injection, schedule: Q01DX009 (ip), vehicle: saline
[6] = dose: 100.0 mg/kg/injection, schedule: Q01DX009 (ip), vehicle: Klucel (hydroxypropylcellulose) (HPC)
[7] = dose: 200.0 mg/kg/injection, schedule: Q01DX009 (ip), vehicle: Klucel (hydroxypropylcellulose) (HPC)
[8] = dose: 400.0 mg/kg/injection, schedule: Q01DX009 (ip), vehicle: Klucel (hydroxypropylcellulose) (HPC)
[9] = dose: 50.0 mg/kg/injection, schedule: Q01DX009 (ip), vehicle: Klucel (hydroxypropylcellulose) (HPC)
[10] = dose: 100.0 mg/kg/injection, schedule: Q01DX009 (ip), vehicle: saline with Tween-80
[11] = dose: 200.0 mg/kg/injection, schedule: Q01DX009 (ip), vehicle: saline with Tween-80
[12] = dose: 12.5 mg/kg/injection, schedule: Q01DX009 (ip), vehicle: Klucel (hydroxypropylcellulose) (HPC)
[13] = dose: 25.0 mg/kg/injection, schedule: Q01DX009 (ip), vehicle: Klucel (hydroxypropylcellulose) (HPC)
[14] = dose: 400.0 mg/kg/injection, schedule: Q01DX009 (ip), vehicle: saline with Tween-80
[15] = dose: 50.0 mg/kg/injection, schedule: Q01DX009 (ip), vehicle: saline with Tween-80
[16] = dose: 100.0 mg/kg/injection, schedule: Q01DX009 (ip), vehicle: saline
[17] = dose: 200.0 mg/kg/injection, schedule: Q01DX009 (ip), vehicle: saline

Measured: T/C

C1=C(/C=C2\CCCc3c(-c4ccccc4)cc(-c4ccccc4)[o+]c32)CCC/C1=C\C1=C2OC(c3ccccc3)=CC(c3ccccc3)=C2CCC1
inactive: [1] 102 % of control | [2] 93 % of control | [3] 87 % of control

CC(=O)c1c(C)n(C)c2c1nnc1ccccc12
inactive: dose: 60.0 mg/kg/injection, schedule: Q01DX005 (ip), vehicle: Klucel (hydroxypropylcellulose) (HPC) 101 % of control | dose: 120.0 mg/kg/injection, schedule: Q01DX005 (ip), vehicle: Klucel (hydroxypropylcellulose) (HPC) 97 % of control | dose: 240.0 mg/kg/injection, schedule: Q01DX005 (ip), vehicle: Klucel (hydroxypropylcellulose) (HPC) 99 % of control

Nc1nc(N)c2nnn(C3OC(CO)C(O)C3O)c2n1 (stereo not drawn)
inactive: dose: 3.0 mg/kg/injection, schedule: Q01DX009 (ip), vehicle: saline 119 % of control | dose: 12.0 mg/kg/injection, schedule: Q01DX009 (ip), vehicle: saline 115 % of control | dose: 12.5 mg/kg/injection, schedule: Q01DX009 (ip), vehicle: saline 122 % of control | [4] 105 % of control | [5] 96 % of control and 105 % of control

NNC(=O)Cc1cc(=O)[nH][nH]1
inactive: [6] 101 % of control | [7] 100 % of control | [8] 108 % of control

CCOC(=O)C(C)(/C=N/NS(=O)(=O)c1ccc(C)cc1)c1ccccc1 (stereo not drawn)
inactive: [9] 106 % of control | [6] 98 % of control | [7] 100 % of control

Cc1cc(N(C)C)c2ccc3c(ccc4c(N(C)C)cc(C)nc43)c2n1
inactive: dose: 25.0 mg/kg/injection, schedule: Q01DX009 (ip), vehicle: saline with Tween-80 94 % of control | [10] 103 % of control | [11] 99 % of control

OC1(c2ccccc2C(O)(C(F)(F)F)C(F)(F)F)OC(C(F)(F)F)(C(F)(F)F)c2ccccc21 (stereo not drawn)
inactive: [12] 101 % of control | [13] 99 % of control | [9] 99 % of control

Br[C](Br)(Br)[Hg][c]1ccccc1
inactive: dose: 3.13 mg/kg/injection, schedule: Q01DX009 (ip), vehicle: saline with Tween-80 106 % of control | dose: 6.25 mg/kg/injection, schedule: Q01DX009 (ip), vehicle: saline with Tween-80 100 % of control | dose: 12.5 mg/kg/injection, schedule: Q01DX009 (ip), vehicle: saline with Tween-80 104 % of control

O=c1cc(CO)[nH]cc1O
inactive: [9] 99 % of control | [6] 123 % of control | dose: 120.0 mg/kg/injection, schedule: Q01DX009 (ip), vehicle: saline with Tween-80 87 % of control | [7] 122 % of control | [14] 112 % of control

O=C(Nc1cccc(NC(=O)Nc2cccc(C3=NCCN3)c2)c1)Nc1cccc(C2=NCCN2)c1
inactive: dose: 90.0 mg/kg/injection, schedule: Q01DX010 (ip), vehicle: saline 100 % of control

CC(=O)[O-].CC(=O)[O-].CC(=O)[O-].CC(=O)[O-].Cn1c(=O)c2[nH]cnc2n(C)c1=O.Cn1c(=O)c2[nH]cnc2n(C)c1=O.[Rh+2].[Rh+2]
inactive: dose: 3.12 mg/kg/injection, schedule: Q04DX002 (ip), vehicle: Klucel (hydroxypropylcellulose) (HPC) 100 % of control | dose: 6.25 mg/kg/injection, schedule: Q04DX002 (ip), vehicle: Klucel (hydroxypropylcellulose) (HPC) 101 % of control and 120 % of control | dose: 12.5 mg/kg/injection, schedule: Q04DX002 (ip), vehicle: Klucel (hydroxypropylcellulose) (HPC) 101 % of control and 118 % of control | dose: 25.0 mg/kg/injection, schedule: Q04DX002 (ip), vehicle: Klucel (hydroxypropylcellulose) (HPC) 103 % of control and 110 % of control | dose: 50.0 mg/kg/injection, schedule: Q04DX002 (ip), vehicle: Klucel (hydroxypropylcellulose) (HPC) 103 % of control

CC(=O)OCC1OC(Nc2[nH]c(=O)n(C)c(=O)c2C=O)C(OC(C)=O)C(OC(C)=O)C1OC(C)=O (stereo not drawn)
inactive: [1] 105 % of control | [2] 109 % of control | [3] 103 % of control

COc1cccc(OC)c1[N+](=O)[O-]
inactive: [15] 87 % of control | [10] 97 % of control | [11] 106 % of control

NC(=S)C(F)(F)F
inactive: dose: 75.0 mg/kg/injection, schedule: Q01DX001 (ip), vehicle: saline with Tween-80 103 % of control | dose: 150.0 mg/kg/injection, schedule: Q01DX001 (ip), vehicle: saline with Tween-80 113 % of control | dose: 300.0 mg/kg/injection, schedule: Q01DX001 (ip), vehicle: saline with Tween-80 103 % of control

O=[N+]([O-])c1cccc2c1nnn2OC1CCCC1
inactive: dose: 100.0 mg/kg/injection, schedule: Q01DX001 (ip), vehicle: saline with Tween-80 102 % of control | dose: 200.0 mg/kg/injection, schedule: Q01DX001 (ip), vehicle: saline with Tween-80 98 % of control

Clc1ccc(C2N3Cc4ccccc4CN2c2ccccc23)cc1
inactive: dose: 100.0 mg/kg/injection, schedule: Q01DX001 (ip), vehicle: Klucel (hydroxypropylcellulose) (HPC) 100 % of control | dose: 200.0 mg/kg/injection, schedule: Q01DX001 (ip), vehicle: Klucel (hydroxypropylcellulose) (HPC) 98 % of control | dose: 400.0 mg/kg/injection, schedule: Q01DX001 (ip), vehicle: Klucel (hydroxypropylcellulose) (HPC) 96 % of control

COc1cc(/C=C2\CN(C)C(=O)C2=O)ccc1O
inactive: [15] 100 % of control | [10] 108 % of control | [11] 109 % of control | [14] 108 % of control

CCOC1CN(C(=O)ON)N1C(=O)ON (stereo not drawn)
inactive: [5] 109 % of control | [16] 107 % of control | [17] 89 % of control

OCC1OC(n2cnc3c(NO)ncnc32)C(O)C1O (stereo not drawn)
inactive: [12] 102 % of control | [13] 100 % of control | [9] 99 % of control and 109 % of control and 110 % of control | [6] 100 % of control and 107 % of control and 113 % of control | [7] 103 % of control and 113 % of control and 97 % of control | [8] 102 % of control and 119 % of control

COc1cc(C(C)=O)c(C2=NC(C)(C)CO2)cc1C
inactive: dose: 50.0 mg/kg/injection, schedule: Q01DX005 (ip), vehicle: saline with Tween-80 101 % of control | dose: 100.0 mg/kg/injection, schedule: Q01DX005 (ip), vehicle: saline with Tween-80 98 % of control | dose: 200.0 mg/kg/injection, schedule: Q01DX005 (ip), vehicle: saline with Tween-80 97 % of control

CN1C(=O)N/C(=C2/CCOC2=O)C1=O
inactive: [15] 106 % of control | [10] 88 % of control | [11] 98 % of control

COC(=O)c1ccc(N=NN(C)C)cc1
inactive: [4] 100 % of control and 97 % of control | dose: 25.0 mg/kg/injection, schedule: Q01DX009 (ip), vehicle: suspension in saline 103 % of control | [5] 113 % of control and 92 % of control | dose: 50.0 mg/kg/injection, schedule: Q01DX009 (ip), vehicle: suspension in saline 91 % of control | [16] 103 % of control and 94 % of control | [17] 108 % of control | dose: 200.0 mg/kg/injection, schedule: Q01DX009 (ip), vehicle: suspension in saline 101 % of control

O=C(N=C1C(=O)C2(CCCCC2)C2(N=C(c3ccccc3)OC2=O)C12CCCCC2)c1ccccc1 (stereo not drawn)
inactive: [1] 107 % of control | [2] 100 % of control | [3] 100 % of control

CCN(c1ccccc1)c1cc(=O)nc2ccccn12
inactive: dose: 60.0 mg/kg/injection, schedule: Q01DX005 (ip), vehicle: saline 107 % of control | dose: 120.0 mg/kg/injection, schedule: Q01DX005 (ip), vehicle: saline 105 % of control | dose: 240.0 mg/kg/injection, schedule: Q01DX005 (ip), vehicle: saline 104 % of control
